Laboratory results taken from patent US20130216498A1, “IMIDAZOPYRIDINE DERIVATIVES AS JAK INHIBITORS” (priority 2009, published 2013).

What was measured:
Assay type in all cases: biochemical
[1] = target: T1, human JAK1 (aa 850-1154) catalytic domain (Homo sapiens, UniProt P23458); test: In vitro JAK kinase assay (TR-FRET), JAK1; conditions: GST-fusion catalytic domain; ATP 3 μM; poly (GT)-Biotin 60 nM; 30 minutes at room temperature
T1 construct: human JAK1 (aa 850-1154); GST (N); purchased Carna Biosciences; host or cells: baculovirus expression system
T1 sequence (P23458 850-1154): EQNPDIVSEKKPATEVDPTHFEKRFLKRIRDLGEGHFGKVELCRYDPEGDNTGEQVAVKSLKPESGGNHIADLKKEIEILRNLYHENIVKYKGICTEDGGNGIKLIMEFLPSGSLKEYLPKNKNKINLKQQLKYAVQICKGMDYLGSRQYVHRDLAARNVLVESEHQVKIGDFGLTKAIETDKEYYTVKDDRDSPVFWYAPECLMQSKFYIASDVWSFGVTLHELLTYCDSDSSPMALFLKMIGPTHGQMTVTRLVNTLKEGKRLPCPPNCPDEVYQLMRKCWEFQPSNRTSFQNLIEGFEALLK
Description: (§1) Compounds were screened for their ability to inhibit JAK1, JAK2 and JAK3 using the assays as indicated below.
(§2) The catalytic domains of human JAK1 (aa 850-1154), JAK2 (aa 826-1132), JAK3 (aa 795-1124) and Tyk2 (aa 871-1187) were expressed as N-terminal GST-fusion proteins using a baculovirus expression system and were purchased from Carna Biosciences. The enzymatic activity was assayed using as substrate a biotinylated peptide, poly (GT)-Biotin (CisBio). The peptide concentration in the reactions was 60 nM for JAK1, 20 nM for JAK2, 140 nM for JAK3 and 50 nM for Tyk2. The degree of phosphorylation was detected by TR-FRET (time-resolved fluorescence energy transfer).
(§3) IC50s of compounds were measured for each kinase in a reaction mixture containing the enzyme, ATP and the peptide in 8 mM MOPS (pH 7.0), 10 mM MgCl2, 0.05% β-mercaptoethanol, 0.45 mg/mL BSA. The ATP concentration in the reactions was 3 μM for JAK1, 0.2 μM for JAK2, 0.6 μM for JAK3 and 1.8 μM for Tyk2. The enzymatic reactions took place for 30 minutes at room temperature. Then, the reactions were stopped with 20 μL of quench detection buffer (50 mM HEPES, 0.5 M KF, EDTA 0.25 M, 0.1% (w/v) BSA, pH 7.5) containing 0.115 μg/mL of anti-phosphoTyr (PT66)-Cryptate (CisBio) and a variable concentration of SA-XL665 (CisBio) to keep the SA-B ratio constant. Incubate for 3 h and read on Victor 2V spectrofluorometer (PerkinElmer) set to read fluorescence resonance energy transfer.

[2] = target: T2, human JAK3 (aa 795-1124) catalytic domain (Homo sapiens, UniProt P52333); test: In vitro JAK kinase assay (TR-FRET), JAK3; conditions: GST-fusion catalytic domain; ATP 0.6 μM; poly (GT)-Biotin 140 nM; 30 minutes at room temperature
T2 construct: JAK3 (aa 795-1124); GST (N); purchased Carna Biosciences; host or cells: baculovirus expression system
T2 sequence (P52333 795-1124): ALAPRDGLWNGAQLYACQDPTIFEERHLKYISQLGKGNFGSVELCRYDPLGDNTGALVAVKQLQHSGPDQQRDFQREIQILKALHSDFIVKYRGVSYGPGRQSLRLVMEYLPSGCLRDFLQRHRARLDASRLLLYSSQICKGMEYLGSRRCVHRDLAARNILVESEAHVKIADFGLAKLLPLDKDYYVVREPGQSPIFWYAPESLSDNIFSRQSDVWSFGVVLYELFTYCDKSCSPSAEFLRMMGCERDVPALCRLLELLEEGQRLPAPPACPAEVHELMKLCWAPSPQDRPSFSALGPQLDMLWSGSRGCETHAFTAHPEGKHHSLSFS
Description: as §1, §2, §3

[3] = target: T3, human JAK2 (aa 826-1132) catalytic domain (Homo sapiens, UniProt O60674); test: In vitro JAK kinase assay (TR-FRET), JAK2; conditions: GST-fusion catalytic domain; ATP 0.2 μM; poly (GT)-Biotin 20 nM; 30 minutes at room temperature
T3 construct: JAK2 (aa 826-1132); GST (N); purchased Carna Biosciences; host or cells: baculovirus expression system
T3 sequence (O60674 826-1132): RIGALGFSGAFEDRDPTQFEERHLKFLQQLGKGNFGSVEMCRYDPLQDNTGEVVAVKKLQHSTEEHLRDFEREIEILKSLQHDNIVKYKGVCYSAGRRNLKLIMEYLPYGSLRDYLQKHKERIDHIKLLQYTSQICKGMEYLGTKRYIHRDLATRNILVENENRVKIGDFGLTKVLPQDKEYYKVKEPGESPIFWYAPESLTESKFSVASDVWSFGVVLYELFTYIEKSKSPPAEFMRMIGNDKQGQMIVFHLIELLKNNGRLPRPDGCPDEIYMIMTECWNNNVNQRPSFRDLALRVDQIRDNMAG
Description: as §1, §2, §3

For `CC(C)(C)CNc1ccnc(-c2cnc3ccccn23)n1` [Example 31, N-(2,2-Dimethylpropyl)-2-imidazo[1,2-a]pyridin-3-ylpyrimidin-4-amine], the IC50 [1] was 0.1 to 1 µM, the IC50 [2] was 0.1 to 1 µM and the IC50 [3] was under 0.1 µM.
In the case of `C[C@@H](c1ccc(F)cn1)N(C)c1nc(-c2cnc3ccc(F)cn23)ncc1C(=O)O` [Example 145, (S)-2-(6-Fluoroimidazo[1,2-a]pyridin-3-yl)-4-((1-(5-fluoropyridin-2-yl)ethyl)(methyl)amino)pyrimidine-5-carboxylic acid], the IC50 [1] is reported as 0.1 to 1 µM, the IC50 [2] is reported as 0.1 to 1 µM and the IC50 [3] is reported as under 0.1 µM.
With `C[C@H](Nc1ccnc(-c2cnc3ccc(C#N)cn23)n1)c1ccccc1` [Example 1, 3-(4-{[(1S)-1-Phenylethyl]amino}pyrimidin-2-yl)imidazo[1,2-a]pyridine-6-carbonitrile] the IC50 [1] was 0.1 to 1 µM, the IC50 [2] was under 0.1 µM and the IC50 [3] was under 0.1 µM.
`O=C([C@H](O)CO)N1CCC[C@@H](Nc2nc(-c3cnc4ccc(F)cn34)nc(N3CCOCC3)c2F)C1` [Example 185, (R)-1-((R)-3-(5-Fluoro-2-(6-fluoroimidazo[1,2-a]pyridin-3-yl)-6-morpholinopyrimidin-4-ylamino)piperidin-1-yl)-2,3-dihydroxypropan-1-one] showed an IC50 [1] of 0.1 to 1 µM, an IC50 [2] of 0.1 to 1 µM and an IC50 [3] of under 0.1 µM.
`CC(C)(C)CNc1nc(-c2cnc3ccc(C#N)cn23)ncc1N1CCNCC1` [Example 10, 3-{4-[(2,2-Dimethylpropyl)amino]-5-piperazin-1-ylpyrimidin-2-yl}imidazo[1,2-a]pyridine-6-carbonitrile] gave an IC50 [1] of over 1 µM, an IC50 [2] of 0.1 to 1 µM and an IC50 [3] of under 0.1 µM.
For `CS(=O)(=O)c1cnc(-c2cnc3ccc(F)cn23)nc1N[C@@H]1CCCN(C(=O)CC#N)C1` [Example 159, (R)-3-(3-(2-(6-Fluoroimidazo[1,2-a]pyridin-3-yl)-5-(methylsulfonyl)pyrimidin-4-ylamino)piperidin-1-yl)-3-oxopropanenitrile], the IC50 [1] was over 1 µM, the IC50 [2] was 0.1 to 1 µM and the IC50 [3] was under 0.1 µM.
With `Cc1cnc(-c2cnc3ccc(F)cn23)nc1N[C@@H]1CCN(C(=O)CC#N)C1` [Example 134, (R)-3-(3-(2-(6-Fluoroimidazo[1,2-a]pyridin-3-yl)-5-methylpyrimidin-4-ylamino)pyrrolidin-1-yl)-3-oxopropanenitrile] the IC50 [1] was 0.1 to 1 µM, the IC50 [2] was 0.1 to 1 µM and the IC50 [3] was under 0.1 µM.
Compound `COCCNc1ccnc(-c2cnc3ccc(C#N)cn23)n1` [Example 6, 3-{4[(2-Methoxyethyl)amino]pyrimidin-2-yl}imidazo[1,2-a]pyridine-6-carbonitrile] has an IC50 [1] of over 1 µM, an IC50 [2] of 0.1 to 1 µM and an IC50 [3] of 0.1 to 1 µM.
Work on `N#CCC(=O)N1CCC[C@@H](Nc2cc(-n3cncn3)nc(-c3cnc4ccc(F)cn34)n2)C1` [Example 164, (R)-3-(3-(2-(6-Fluoroimidazo[1,2-a]pyridin-3-yl)-6-(M−1,2,4-triazol-1-yl)pyrimidin-4-ylamino)piperidin-1-yl)-3-oxopropanenitrile] yielded an IC50 [1] of 0.1 to 1 µM, an IC50 [2] of under 0.1 µM and an IC50 [3] of under 0.1 µM.
Work on `N#Cc1ccc2ncc(-c3nccc(NC4CCCCC4)n3)n2c1` [Example 21, 3-[4-(Cyclohexylamino)pyrimidin-2-yl]imidazo[1,2-a]pyridine-6-carbonitrile] yielded an IC50 [1] of 0.1 to 1 µM, an IC50 [2] of under 0.1 µM and an IC50 [3] of under 0.1 µM.
`Nc1cnc(-c2cnc3ccc(F)cn23)nc1NCc1ccc(F)cn1` [Example 136] gave an IC50 [1] of under 0.1 µM, an IC50 [2] of under 0.1 µM and an IC50 [3] of under 0.1 µM.
With `N#Cc1ccc(N2CCC[C@@H](Nc3ccnc(-c4cnc5ccc(C#N)cn45)n3)C2)nc1` [Example 57, 3-(4-{[(3R)-1-(5-Cyanopyridin-2-yl)piperidin-3-yl]amino}pyrimidin-2-yl)imidazo[1,2-a]pyridine-6-carbonitrile] the IC50 [1] was over 1 µM, the IC50 [2] was under 0.1 µM and the IC50 [3] was under 0.1 µM.
`N#CCC(=O)N1CCC[C@@H](Nc2cc(C(=O)O)nc(-c3cnc4ccc(F)cn34)n2)C1` [Example 181, (R)-6-(1-(2-Cyanoacetyl)piperidin-3-ylamino)-2-(6-fluoroimidazo[1,2-a]pyridin-3-yl)pyrimidine-4-carboxylic acid] was tested, and the IC50 [1] was 0.1 to 1 µM, the IC50 [2] was 0.1 to 1 µM and the IC50 [3] was under 0.1 µM.
Work on `N#Cc1cnc(N2CCC[C@@H](Nc3ccnc(-c4cnc5ccc(F)cn45)n3)C2)s1` [Example 131, (R)-2-(3-(2-(6-Fluoroimidazo[1,2-a]pyridin-3-yl)pyrimidin-4-ylamino)piperidin-1-yl)thiazole-5-carbonitrile] yielded an IC50 [1] of under 0.1 µM, an IC50 [2] of under 0.1 µM and an IC50 [3] of under 0.1 µM.
Compound `O=C(C1CC1(F)F)N1CCC[C@@H](Nc2ccnc(-c3cnc4ccc(F)cn34)n2)C1` (stereo partly drawn) [Example 102, (2,2-Difluorocyclopropyl)((R)-3-(2-(6-fluoroimidazo[1,2-a]pyridin-3-yl)pyrimidin-4-ylamino)piperidin-1-yl)methanone] has an IC50 [1] of over 1 µM, an IC50 [2] of 0.1 to 1 µM and an IC50 [3] of under 0.1 µM.
`C[C@H](Nc1cncc(-c2cnc3ccc(C4CC4)cn23)n1)c1ccccc1` [Example 38, 6-(6-Cyclopropylimidazo[1,2-a]pyridin-3-yl)-N-[(1S)-1-phenylethyl]pyrazin-2-amine] gave an IC50 [1] of over 1 µM, an IC50 [2] of 0.1 to 1 µM and an IC50 [3] of under 0.1 µM.
For `C[C@H](Nc1cncc(-c2cnc3ccc(-c4ccccc4)cn23)n1)c1ccccc1` [Example 42, N-[(1S)-1-Phenylethyl]-6-(6-phenylimidazo[1,2-a]pyridin-3-yl)pyrazin-2-amine], the IC50 [1] was over 1 µM, the IC50 [2] was over 1 µM and the IC50 [3] was 0.1 to 1 µM.
Work on `O=C(CC(F)(F)F)N1CCC[C@@H](N(CC2CC2)c2ccnc(-c3cnc4ccc(F)cn34)n2)C1` [Example 76, N-(Cyclopropylmethyl)-2-(6-fluoroimidazo[1,2-a]pyridin-3-yl)-N-[(3R)-1-(3,3,3-trifluoropropanoyl)piperidin-3-yl]pyrimidin-4-amine] yielded an IC50 [1] of over 1 µM, an IC50 [2] of 0.1 to 1 µM and an IC50 [3] of under 0.1 µM.
Compound `COc1cnc(-c2cnc3ccc(F)cn23)nc1N[C@@H]1CCCN(C(=O)CC#N)C1` [Example 163, (R)-3-(3-(2-(6-Fluoroimidazo[1,2-a]pyridin-3-yl)-5-methoxypyrimidin-4-ylamino)piperidin-1-yl)-3-oxopropanenitrile] has an IC50 [1] of 0.1 to 1 µM, an IC50 [2] of under 0.1 µM and an IC50 [3] of under 0.1 µM.
`N#CCC(=O)N1CCC[C@@H](Nc2cc(N)nc(-c3cnc4ccc(F)cn34)n2)C1` [Example 183, (R)-3-(3-(6-Amino-2-(6-fluoroimidazo[1,2-a]pyridin-3-yl)pyrimidin-4-ylamino)piperidin-1-yl)-3-oxopropanenitrile] showed an IC50 [1] of under 0.1 µM, an IC50 [2] of under 0.1 µM and an IC50 [3] of under 0.1 µM.
`N#CCC(=O)N1CCC[C@@H](Nc2cc(N3CCNCC3)nc(-c3cnc4ccc(F)cn34)n2)C1` [Example 166, (R)-3-(3-(2-(6-Fluoroimidazo[1,2-a]pyridin-3-yl)-6-(piperazin-1-yl)pyrimidin-4-ylamino)piperidin-1-yl)-3-oxopropanenitrile] showed an IC50 [1] of 0.1 to 1 µM, an IC50 [2] of under 0.1 µM and an IC50 [3] of under 0.1 µM.
Compound `N#CCC(=O)N1CCC[C@@H](Nc2ccnc(-c3cnc4ccc(F)cn34)n2)C1` [Example 64, 3-((3R)-3-{[2-(6-Fluoroimidazo[1,2-a]pyridin-3-yl)pyrimidin-4-yl]amino}piperidin-1-yl)-3-oxopropanenitrile] has an IC50 [1] of under 0.1 µM, an IC50 [2] of under 0.1 µM and an IC50 [3] of under 0.1 µM.
`N#Cc1ccc2ncc(-c3nccc(N[C@H]4CC[C@H](O)CC4)n3)n2c1` [Example 22, 3-{4-[(Trans-4-hydroxycyclohexyl)amino]pyrimidin-2-yl}imidazo[1,2-a]pyridine-6-carbonitrile] was tested, and the IC50 [1] was over 1 µM, the IC50 [2] was under 0.1 µM and the IC50 [3] was under 0.1 µM.
Compound `N#CC[C@H]1CC[C@H](Nc2nc(-c3cnc4ccc(F)cn34)ncc2C(N)=O)CC1` [Example 153, 4-((1r,4r)-4-(Cyanomethyl)cyclohexylamino)-2-(6-fluoroimidazo[1,2-a]pyridin-3-yl)pyrimidine-5-carboxamide] has an IC50 [1] of over 1 µM, an IC50 [2] of under 0.1 µM and an IC50 [3] of under 0.1 µM.
`N#CCC(=O)N1CCC[C@@H](Nc2cc(N3CCC[C@H]3C(=O)O)nc(-c3cnc4ccc(F)cn34)n2)C1` [Example 172] gave an IC50 [1] of 0.1 to 1 µM, an IC50 [2] of 0.1 to 1 µM and an IC50 [3] of under 0.1 µM.
With `N#CCC(=O)N1CCC[C@@H](Nc2cc(OCCN3CCOCC3)nc(-c3cnc4ccc(F)cn34)n2)C1` [Example 175, (R)-3-(3-(2-(6-Fluoroimidazo[1,2-a]pyridin-3-yl)-6-(2-morpholinoethoxy)pyrimidin-4-ylamino)piperidin-1-yl)-3-oxopropanenitrile] the IC50 [1] was under 0.1 µM, the IC50 [2] was under 0.1 µM and the IC50 [3] was under 0.1 µM.
